Results on 2 compounds are retold here after patent US20090202569A1, “Prophylactic/Therapeutic Agent for Cancer” (priority 2006, published 2009).

For experiment [1], the system named is lung cancer cell strain NCI-H23. The experiment is described as follows: Combined effect of ACS inhibitor and FAS inhibitors, cell survival rate by the Sulforhodamine B method. The class given is cell-based. The following applies: 3 days, n=3, 100% = without drug treatment.
The subject of a further experiment is SF268/ACS5 cells. The experiment is described as follows: FAS inhibitor sensitivity of cells with stable high ACS5 expression, surviving cells counted by trypan blue exclusion. In kind it is cell-based, human. The note with it: 15 μg/ml, treated for 24 hours.
The subject of the next experiment is SF268/mock cells. Briefly: FAS inhibitor sensitivity of control cells, surviving cells counted by trypan blue exclusion. In kind it is cell-based, human. The note with it: 15 μg/ml, treated for 24 hours.

Regarding `CCCC=CCC=CC=CC=NNN=O` [Triacsin C, 2,4,7-undecatrienal nitrosohydrazone], the cell survival rate in experiment [1] (NCI-H23, 0.3 μM Triacsin C alone) is reported as 56.3±0.5%.

As for `C/C=C/C/C=C/CCC(=O)[C@H]1O[C@H]1C(N)=O` [Cerulenin, 2R,3S,E,E)-2,3-epoxy-4-oxo-7,10-dodecadienamide], the growth suppression effect result with SF268/ACS5 cells was “no growth suppression effect”; with SF268/mock cells, “clear growth suppression effect”. In addition, the cell survival rate in experiment [1] (NCI-H23, 2 μM FAS inhibitor alone) is on record as 70.2±7.9%.
